Assay: gradient 5% acetonitrile 3 min, to 50% in 2 min, to 85% in 15 min, held 3 min, 100 µL/min
Details: column: Zorbax Extend-C18 2.1 x 50 mm; eluents: water / acetonitrile, 0.1% formic acid
Procedure, shortened: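 The mobile phases were water and acetonitrile, each with 0.1% formic acid, pumped at 100 μL/min through a Zorbax Extend-C18 column (2.1 × 50 mm, 1.8 μm). Pure standards were injected as mixtures of ~100 molecules and detected by a quadrupole time-of-flight mass spectrometer in positive and negative ionization mode. Retention time came from computationally picked adduct peaks, each inspected by hand.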

SMILES	RP-LC retention time
CCCCC(=O)Nc1ccc2nc(N3CCN(c4cccc(Cl)c4)CC3)cc(C(=O)O)c2c1	758 s
Cc1ncc2c(n1)C[C@@H]1CC[C@H]2N1C(=O)c1cccnc1	570 s
Cc1ccc(NC(=O)N2CC(N(Cc3ccncc3)CC(C)C)C2)cc1F	705 s
COc1ccc(OC)c(CNC(=O)C2CCN(Cc3cn(C)c4ccc(OC)cc34)CC2)c1	682 s
CCc1ccc(S(=O)(=O)c2cnc(N3CCN(c4ccccc4OC)CC3)nc2N)cc1	1080 s
Cn1c(C(O)c2ccccc2)nc2ccccc21 (stereo unspecified)	545 s
CCS(=O)(=O)N(C)C1CCc2nn(Cc3ccccc3)c(=O)n2CC1 (stereo unspecified)	710 s
CCCC(=O)N1CCC2(C1)C(=O)Nc1ccc(OC)cc12 (stereo unspecified)	652 s
CCCNC(=O)C1CCN(c2ccc(SCC(=O)Nc3c(C)cc(C)cc3C)nn2)CC1	657 s
O=C(C1CCCN(c2ccc3cc(S(=O)(=O)N4CCCC4)ccc3n2)C1)N1CCc2ccccc21 (stereo unspecified)	884 s
CC(C)Cc1cc(-c2nn3c(COc4ccc(Br)cc4)nnc3s2)n[nH]1	1030 s
O=C(CCn1c(N2CCCC2)nc2ccsc2c1=O)Nc1cccc(Cl)c1	892 s
Cc1sc(NC(=O)c2ccccc2)nc1-c1ccc2c(c1)NC(=O)CO2	857 s
CCc1ccc(S(=O)(=O)N(C)CC2CCOCC2)cc1	911 s
O=C(c1ccsc1)N1CCN(c2cc(-c3ccc(Cl)cc3)[nH]n2)CC1	809 s
CCc1ccc(-c2nc(-c3ccc4nnc(CC)n4c3)no2)cc1	1140 s
O=C(Nc1ccc2oc(-c3ccccc3)nc2c1)C1CCN(c2cnn(Cc3ccccc3)c(=O)c2)C1 (stereo unspecified)	923 s
CCCCC(=O)Nc1nnc(SCc2nnc(-c3ccccc3)o2)s1	854 s
CS(=O)(=O)c1nc2ccc(NS(=O)(=O)c3cc(F)cc(F)c3)cc2s1	858 s
Cn1nccc1-c1cccc(-c2noc(-c3ccc(Br)cc3)n2)c1	1280 s
CCc1sc(NC(=O)Cc2csc(C)n2)nc1-c1ccc(Br)cc1	1080 s
CC(=O)Nc1ccc(NC(=O)c2ccc(-c3ccnc(N4CCCC4)n3)cc2)cc1	663 s
Cc1cccc(-c2nc(NCc3ccncc3)ncc2C(=O)O)c1	587 s
CC[C@H](C)NC(=O)Cc1nnc(-c2cccc(C)c2)o1	767 s
CCn1cc(-c2nc(C)c(C(=O)Nc3ccc(F)c(F)c3)s2)c2cccnc21	1070 s

SMILES	RP-LC retention time
COc1ccc(NC(=O)Cn2c(=O)n(-c3ccc(C)cc3)c3ncccc32)c(OC)c1	872 s
COc1cc2c(CCNC(C)=O)c[nH]c2cc1Cl	754 s
O=C(NCc1ccccc1C(F)(F)F)C1=C2CCCN2c2ccccc2S1(=O)=O	916 s
O=C(NC1CC1)C1CCN(S(=O)(=O)c2cc(C(=O)N3CCCCCC3)cs2)CC1	713 s
COc1ccc2c(c1)C1(CCN(C(=O)c3cccc(Br)c3)C1)C(=O)N2 (stereo unspecified)	754 s
Cc1ccc2c(c1)C(c1ccccc1)NCC(=O)N2 (stereo unspecified)	544 s
COc1ccc(NC(=O)CSc2ccc(-c3cccs3)nn2)c(OC)c1	890 s
N[C@@H]1CCCN(c2c(/C=C3\SC(=O)NC3=O)cccc2-c2ccccc2)C1	772 s
CCOC(=O)Cn1c(CNC(=O)c2ccco2)nc2ccccc21	618 s
CCN(CC)CCOc1ccc(/C(=C(\Cl)c2ccccc2)c2ccccc2)cc1	996 s
CN1CCN(c2ccc(-c3ccc(NC(=O)c4cc(Cl)ccc4Cl)cc3)nn2)CC1	646 s
Cc1ccc(Nc2c(-c3ccccc3)nc3ccc(C)cn23)cc1	750 s
Cc1ccc2c(Nc3ccc(C(C)C)cc3)c(C(=O)N3CCC(C)CC3)cnc2n1	737 s
Cc1cc(=O)n(CC(=O)N2CCCc3ccccc32)c(N2CCOCC2)n1	687 s
CCOC(=O)c1[nH]c2ccc(OC)cc2c1NC(=S)N1CCN(c2ccccn2)CC1	610 s
O=C(NCCCN1CCCCC1)c1cc2n(n1)CCCN(Cc1ccc(Cl)cc1)C2=O	582 s
COc1ccc(CNC(=O)c2nnc(-c3ccc(S(=O)(=O)N(C)C)cc3)o2)c(OC)c1	865 s
Cc1ccc2c(c1)N(CC(=O)NC1CC1)C(=O)C(C)O2 (stereo unspecified)	738 s
O=C(Cn1c(=O)c2cc(C3CC3)nn2c2ncccc21)NCc1ccc(F)cc1	748 s
CCCn1c(=O)c(N2CCC(NC(=O)NC3CCCCC3)CC2)nc2ccccc21	953 s
COc1ccccc1N1CCN(C(=O)c2csc3nc(-c4ccc(F)cc4)cn23)CC1	879 s
Cc1cc(C)n(-c2ncnc3c2cnn3Cc2ccccc2)n1	1240 s
O=C(Nc1ccc2c(c1)OCO2)c1c(O)c2cccnc2n(-c2ccccc2)c1=O	663 s
CCC(=O)N1CCCCCCN(C)C(=O)[C@@H]2CCC[C@@H]21	726 s
O=C(Nc1cccn2c(C3CCC3)nnc12)C1COc2ccccc2O1 (stereo unspecified)	837 s

The next lines start with the values.

RP-LC retention time	SMILES
681 s	O=c1c2cc(-c3ccccc3)nn2ccn1Cc1noc(CN2CCOCC2)n1
826 s	Cc1cccc(-c2nnc(C)c(N3CCc4ccccc4C3)n2)c1
693 s	COc1ccccc1NC(=O)c1[nH]c2cc(C)sc2c1CN1CCOCC1
638 s	CC(C)n1cnc2cc(CNC(=O)c3cc(F)ccc3Cl)ccc21
622 s	CCCCN(C)C(=O)c1cc(NC(=O)C(C)(C)C)cnc1N1CCNCC1
650 s	COCC1CCN(C(=O)COc2ccc(NC(=O)C3CC3)cn2)CC1
634 s	CC1CCN(CCNC(=O)c2nnc(-c3ccc(S(=O)(=O)N4CCCC4)cc3)o2)CC1
592 s	CCN1CCC2(CC1)N=C(c1ccc(F)cc1)CC(c1cccc(OC)c1O)N2 (stereo unspecified)
652 s	C=CCN1CCc2cc(O)c(O)cc2C(c2ccccc2)C1 (stereo unspecified)
735 s	Cc1csc(NC(=O)Cn2nc3c(cc2=O)CCCCC3)n1
570 s	CCc1noc([C@@H]2CC(F)(F)CN2C(=O)Cn2ccnc2)n1
923 s	O=c1n(Cc2ccc(F)cc2)nc2ccc(S(=O)(=O)N3CCCCC3)cn12
761 s	CCc1ccccc1NC(=O)CN1C(=O)NC2(CCCCC2)C1=O
677 s	Cc1nnc2ccc(NC(=O)Nc3cccc(F)c3)cn12
1100 s	CCCc1ccc(S(=O)(=O)N2CCC(C(=O)NCCc3csc(-c4ccccc4)n3)CC2)cc1
861 s	COc1ccc(CSc2nnc3c(S(=O)(=O)N4CCCCC4)cccn23)cc1
1080 s	Cc1cc(C)c2c(-n3cccc3)nn(CC(=O)NC(C)CCc3ccccc3)c2n1 (stereo unspecified)
892 s	CCc1ccccc1N1C(=O)CN(S(=O)(=O)CC)CC1(C)C(=O)NCc1ccc(F)cc1 (stereo unspecified)
1030 s	O=C(Nc1cnc(-c2cccc(Cl)c2)nc1)c1ccsc1
1210 s	COc1ccccc1NC(=O)c1c(O)c2cccnc2n(-c2cccc(F)c2)c1=O
892 s	COc1ccccc1CNC(=O)C1CCCN(S(=O)(=O)c2cc(-c3noc(C)n3)cs2)C1 (stereo unspecified)

RP-LC retention time	SMILES
576 s	Cc1cc2n(n1)CCC(=O)N2CCCC(=O)NCCN(C)C1CCCCC1
826 s	COc1ccc2c(C)c(C(=O)Nc3cc(C)ns3)oc2c1
760 s	COCCOc1ccc2c(n1)CCN(C(=O)NC1CCCCC1)C2
819 s	CCC(C)NC(=O)c1cn(CCOC)cc2c(=O)n(-c3ccccc3)nc1-2 (stereo unspecified)
850 s	CCn1ccc2sc(C)c(C(=O)NCc3ccc(C)cc3)c2c1=O
916 s	Cc1ccc(S(=O)(=O)N2CCC(c3nc(-c4ccccn4)no3)CC2)cc1
936 s	CCCCn1cc(S(=O)(=O)Nc2ccc(F)cc2)c2cccnc21
856 s	CC1(C(=O)NCc2ccccc2)CN(S(C)(=O)=O)CC(=O)N1CCCc1ccccc1 (stereo unspecified)
822 s	COC(=O)c1c(NCc2ccc(F)cc2F)c2cccc(Cl)c2[nH]c1=O
773 s	O=c1ccc(N2CCC(NS(=O)(=O)c3cccc(F)c3)C2)nn1CC1CC1 (stereo unspecified)
1150 s	Cc1cccc(-c2nnc(-c3ccc(Cl)c(S(=O)(=O)N4CCCC4)c3)o2)c1
981 s	Cc1ccc(CC(=O)Nc2cc(-c3nnc(C4CC4)o3)sc2C)cc1
614 s	Cn1c(N2CCN(S(=O)(=O)c3ccc(Cl)s3)CC2)nc2ccccc21
1420 s	Cc1csc(-c2cc(S(=O)(=O)NCCCN3CCCc4ccccc43)c(C)s2)n1
740 s	CCNC(=O)c1nnn(-c2cccc(Cl)c2)c1-c1cccnc1
666 s	CCCn1cnc2cc(CNC(=O)Cc3c(Cl)cccc3Cl)ccc21
717 s	COCC(=O)Nc1cccn2nc(C(C)C)nc12
792 s	CC(C)CN1CCn2cc(S(=O)(=O)NCc3ccccc3F)cc2C1=O
886 s	Cc1ccc(C(=O)Nc2ccc3c(c2)Sc2ncccc2C(=O)N3C(C)C)s1
1030 s	Cc1cc(C(=O)NCCCSC2CCCCC2)n(-c2ccccc2)n1

Reference: the METLIN SMRT retention time set (Domingo-Almenara et al. 2019)
